Patent US20170354726A1, “CANCER PEPTIDE VACCINE” (Green Peptide Co., Ltd., priority 2010, published 2017)
Ends that are not written are not given here.

Assays:
Assay type in all cases: in vivo, human
[1] = test system: antibody to a peptide in the peripheral blood of HRPC patients; test: Antibody to peptide in plasma (FIU, Luminex) of HRPC patients; conditions: prostate cancer, patients given this peptide
Experimental: (§1) More specifically, a carrier was prepared in which each peptide was immobilized on the surface of micro beads (Luminex Corporation) after dissolving the powdered peptide in DMSO. Subsequently, plasma (heparin blood) obtained by blood collection from the patient was mixed with the immobilized carrier to react the antibody contained in the plasma with the peptide immobilized on the carrier. Then, the immobilized carrier was recovered after reaction; the antibody in the peripheral blood of the patient, bound to the peptide on the support was fluorescently labeled using a biotinylated anti-human antibody (Vector Corporation) and an avidinylated fluorescent dye (Streptavidin-PE, Invitrogen Corporation); and the fluorescence intensity (FIU) thereof was measured.
(§2) For HRPC patients, the average of IFN-γ values or FIU was calculated in the 1 mg administration group (level I), the 3 mg administration group (level II), and the 5 mg administration group (level III) to analyze the relationship between the dose and the immunological response.
(§3) For HRPC patients, the averages of IFN-γ values and FIU obtained from the plasma or PBMC obtained at the end of each course from before administration to the 6th course were calculated in the 1 mg administration group and the group of administration of 3 mg or more to analyze the relationship between the number of times of administration and the immunological response. The “Number of times of administration” in the table and the figure is the total number of times of administration at the end of each course, and the number of times of administration per course is 6.

[2] = test system: antibody to a peptide in the peripheral blood of glioblastoma patients; test: Antibody to peptide in plasma (FIU, Luminex) of glioblastoma patients; conditions: brain tumor, patients given this peptide
Experimental: as §1, with “An antibody to a peptide in the peripheral blood of patient was measured using a multiplex technology provided by Luminex Corporation by a method as described in Japanese Patent No. 3960614 (incorporated herein by reference) using each of the powdered peptides of SEQ ID NOS: 1 to 14. More” for “More”
(§4) Similarly, for glioblastoma patients, the average of IFN-γ values or FIU was calculated in the 1 mg administration group (level I) and the 3 mg administration group (level II) to analyze the relationship between the dose and the immunological response.
(§5) Similarly, for glioblastoma patients, the averages of IFN-γ values and FIU obtained from the plasma or PBMC obtained at the end of each course from before administration to the 2nd course were calculated in the 1 mg administration group (level I) and the group of administration of 3 mg or more (level II) to analyze the relationship between the number of times of administration and the immunological response. The “Number of times of administration” in the table and the figure is the total number of times of administration at the end of each course, and the number of times of administration per course is 6.

[3] = test system: CTL in PBMC of glioblastoma patients, HLA-A24 positive target cells presenting the administered peptide; test: Measurement of CTL activity (IFN-γ) in PBMC of glioblastoma patients; conditions: brain tumor; for CTL (IFN) Post Average: patients given this peptide
Experimental: (§6) PBMC was separated from the peripheral blood obtained by blood collection at the start of administration and at the end of each course for lyophilization, and CTL activity was measured using all PBMC by a known method (Hida N, Maeda Y, Katagiri K, Takasu H, Harada M, Itoh K., A simple culture protocol to detect peptide-specific cytotoxic T lymphocyte precursors in circulation. Cancer Immunol Immunotherapy 2002; 51: 219-228 (incorporated herein by reference)) after the end of administration. First, PBMC was cultured in the presence of each administered peptide for 2 weeks, and the PBMC was co-cultured with HLA-A24 positive target cells presenting the administered peptide via HLA molecules. Then, CTL activity was measured by measuring IFN-γ secreted into the culture supernatant by the reaction of CTL in PBMC with the target cells. The co-culture was performed under 4 independent conditions for each peptide; 4 values were obtained for each peptide for each PBMC obtained by each blood collection; and the total of the 4 values was used as a value (pg/mL) of IFN-γ for analysis to be described later.
as §4, §5

[4] = test system: CTL in PBMC of HRPC patients, HLA-A24 positive target cells presenting the administered peptide; test: Measurement of CTL activity (IFN-γ) in PBMC of HRPC patients; conditions: for reactivity of CTL (and antibody) to the peptide, in words: HRPC patients; for IFN post average/average no. of times of administration / CTL (IFN) Post Average: prostate cancer; for CTL (IFN) Post Average: patients given this peptide
Experimental: as §6, §2, §3
Since the initial peptide reselection was performed at the end of the 1st course, the averages of measurements after the reselection (values measured at the end of the 2nd course and later) are shown in the table and the figure. The “Number of times of administration” in the table and the figure is the total number of times of administration at the end of each course, and the number of times of administration per course is 6.

Sequence: AYDFLYNYL [GP-113]
- Ab Post Average (FIU after peptide administration) [1]: 207 FIU
- Ab Post Average (FIU after peptide administration) [2]: 67 FIU
- IFN post average/average no. of times of administration [3]: 357
- CTL (IFN) Post Average [3]: 5,139 pg/mL
- reactivity of CTL (and antibody) to the peptide, in words [4]: low values of CTL activation
- IFN post average/average no. of times of administration [4]: 67
- CTL (IFN) Post Average [4]: 600 pg/mL

Sequence: LYCESVHNF [GP-108]
- Ab Post Average (FIU after peptide administration) [1]: 19,039 FIU
- IFN post average/average no. of times of administration [4]: 72
- CTL (IFN) Post Average [4]: 2,209 pg/mL

Sequence: DYSARWNEI [GP-112]
- Ab Post Average (FIU after peptide administration) [1]: 53 FIU
- Ab Post Average (FIU after peptide administration) [2]: 1,338 FIU
- IFN post average/average no. of times of administration [3]: 92
- CTL (IFN) Post Average [3]: 1,308 pg/mL
- reactivity of CTL (and antibody) to the peptide, in words [4]: low values of CTL activation
- IFN post average/average no. of times of administration [4]: 76
- CTL (IFN) Post Average [4]: 459 pg/mL

Sequence: TYSVSFDSL [GP-110]
- Ab Post Average (FIU after peptide administration) [1]: 310 FIU
- reactivity of CTL (and antibody) to the peptide, in words [4]: increased the CTL value
- IFN post average/average no. of times of administration [4]: 365
- CTL (IFN) Post Average [4]: 2,190 pg/mL

Sequence: HYTNASDGL [GP-103]
- Ab Post Average (FIU after peptide administration) [1]: 22 FIU
- reactivity of CTL (and antibody) to the peptide, in words [4]: did not increase the reactivity of antibody and CTL
- IFN post average/average no. of times of administration [4]: 8
- CTL (IFN) Post Average [4]: 100 pg/mL

Sequence: RYLTQETNKV [GP-111]
- Ab Post Average (FIU after peptide administration) [1]: 11,125 FIU
- Ab Post Average (FIU after peptide administration) [2]: 241 FIU
- IFN post average/average no. of times of administration [3]: 400
- CTL (IFN) Post Average [3]: 3,001 pg/mL
- IFN post average/average no. of times of administration [4]: 207
- CTL (IFN) Post Average [4]: 5,576 pg/mL

Sequence: LYAWEPSFL [GP-106]
- Ab Post Average (FIU after peptide administration) [1]: 20,080 FIU
- Ab Post Average (FIU after peptide administration) [2]: 297 FIU
- IFN post average/average no. of times of administration [3]: 174
- CTL (IFN) Post Average [3]: 3,134 pg/mL
- IFN post average/average no. of times of administration [4]: 841
- CTL (IFN) Post Average [4]: 22,699 pg/mL

Sequence: NYSVRYRPGL [GP-107]
- Ab Post Average (FIU after peptide administration) [1]: 2,888 FIU
- Ab Post Average (FIU after peptide administration) [2]: 302 FIU
- IFN post average/average no. of times of administration [3]: 8
- CTL (IFN) Post Average [3]: 151 pg/mL
- reactivity of CTL (and antibody) to the peptide, in words [4]: lowly increased the CTL activity
- IFN post average/average no. of times of administration [4]: 27
- CTL (IFN) Post Average [4]: 370 pg/mL

Sequence: TFDYLRSVL [GP-104]
- Ab Post Average (FIU after peptide administration) [1]: 11,538 FIU
- Ab Post Average (FIU after peptide administration) [2]: 920 FIU
- IFN post average/average no. of times of administration [3]: 187
- CTL (IFN) Post Average [3]: 2,986 pg/mL
- IFN post average/average no. of times of administration [4]: 144
- CTL (IFN) Post Average [4]: 3,629 pg/mL

Sequence: DYVREHKDNI [GP-101]
- Ab Post Average (FIU after peptide administration) [1]: 16,491 FIU
- reactivity of CTL (and antibody) to the peptide, in words [4]: lower in the CTL reactivity than other peptides
- IFN post average/average no. of times of administration [4]: 7
- CTL (IFN) Post Average [4]: 129 pg/mL

Sequence: VYDYNCHVDL [GP-114]
- Ab Post Average (FIU after peptide administration) [1]: 10,557 FIU
- Ab Post Average (FIU after peptide administration) [2]: 297 FIU
- IFN post average/average no. of times of administration [3]: 82
- CTL (IFN) Post Average [3]: 821 pg/mL
- IFN post average/average no. of times of administration [4]: 547
- CTL (IFN) Post Average [4]: 4,592 pg/mL

Sequence: DYLRSVLEDF [GP-105]
- Ab Post Average (FIU after peptide administration) [1]: 13,096 FIU
- Ab Post Average (FIU after peptide administration) [2]: 3,969 FIU
- IFN post average/average no. of times of administration [3]: 180
- CTL (IFN) Post Average [3]: 2,706 pg/mL
- IFN post average/average no. of times of administration [4]: 229
- CTL (IFN) Post Average [4]: 5,274 pg/mL

Sequence: HYRKWIKDTI [GP-109]
- Ab Post Average (FIU after peptide administration) [1]: 11,672 FIU
- reactivity of CTL (and antibody) to the peptide, in words [4]: lowly increased the CTL activity
- IFN post average/average no. of times of administration [4]: 22
- CTL (IFN) Post Average [4]: 494 pg/mL
